Laboratory results taken from US6951881B2, “(1-substituted-indol-3-yl) alkylidenehydrazinecarboximidamide derivatives as 5-hydroxytryptamine-6 ligands” (Wyeth, priority 2002, dated 2005).
Where a name gives a salt, the structure may show the parent alone. Read-outs that look alike come from different tables or passages of the source.

Molecular target: T1, human cloned 5-HT6 receptors (Homo sapiens, UniProt P50406)
T1 construct: expressed in transfected cells; host or cells: HeLa cells
Format: binding
Settings: for inhibition at 0.1 µM / inhibition at 1 µM / % Inhibition: displacement of [3H]-LSD; for inhibition at 0.1 µM: read-out: % Inhibition; for Ki: [3H]-LSD 3.0 nM, Hela cell membranes, read-out: 5-HT6 Binding Ki
Method: This operation is repeated.
The reaction is allowed to proceed in the dark for 120 min at room temperature, at which time, the bound ligand-receptor complex is filtered off on a 96 well unifilter with a Packard Filtermate® 196 Harvester. The bound complex caught on the filter disk is allowed to air dry and the radioactivity is measured in a Packard TopCount® equipped with six photomultiplier detectors, after the addition of 40.0 μl Microscint®-20 scintillant to each shallow well. The unifilter plate is heat-sealed and counted in a PackardTopCount® with a tritium efficiency of 31.0%.
Specific binding to the 5-HT6 receptor is defined as the total radioactivity bound less the amount bound in the presence of 10.0 μM unlabeled methiothepin. Binding in the presence of varying concentrations of test compound is expressed as a percentage of specific binding in the absence of test compound. The results are plotted as logit % bound versus log concentration of test compound. Nonlinear regression analysis of data points with a computer assisted program Prism® yields both the IC50 and the Ki values of test compounds with 95% confidence limits.
The amount of displacement by the test compound is given in percent (%) inhibition and is derived from the following equation: [formula] where B0 is the amount of CPM bound in the presence of the testing agent. NSB represents the CPM bound in the presence of a saturating concentration of a displacer and TB represents the total amount of CPM bound at zero (0) concentration of test compound.
Alternatively, a linear regression line of decline of data points is plotted, from which the IC50 value can be read off and the Ki value determined by solving the following equation: [formula] where L is the concentration of the radioactive ligand used and KD is the dissociation constant of the ligand for the receptor, both expressed in nM.

T1 sequence (P50406 whole entry): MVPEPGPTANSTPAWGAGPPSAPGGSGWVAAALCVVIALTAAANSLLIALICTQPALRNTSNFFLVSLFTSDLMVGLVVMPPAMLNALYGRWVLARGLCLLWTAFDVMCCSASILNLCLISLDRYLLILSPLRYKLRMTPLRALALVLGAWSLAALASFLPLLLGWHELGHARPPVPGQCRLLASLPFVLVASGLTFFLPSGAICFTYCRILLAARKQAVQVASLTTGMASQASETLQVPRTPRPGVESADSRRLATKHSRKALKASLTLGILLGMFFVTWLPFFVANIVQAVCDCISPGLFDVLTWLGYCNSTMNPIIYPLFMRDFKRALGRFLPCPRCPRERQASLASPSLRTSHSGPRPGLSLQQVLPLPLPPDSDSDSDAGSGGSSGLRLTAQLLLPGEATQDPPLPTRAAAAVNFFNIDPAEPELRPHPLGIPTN

For `N=C(NN=C1CCCc2[nH]c3ccc(Cl)cc3c21)NC1CCCC1` [Example 183, 2-(6-chloro-1,2,3,9-tetrahydro-4H-carbazol-4-ylidene)-N-cyclopentylhydrazinecarboximidamide], which inhibition at 0.1 µM (test compound dose 100 nM) is on record?
The inhibition at 0.1 µM was 55.3%.

For `CC(C)C(=NNC(=N)N)c1c(-c2ccccc2)n(C)c2ccccc12` [Example 81, 2-[1-(1-methyl-2-phenyl-1H-indol-3-yl)-2-methyl-propylidene]hydrazinecarboximidamide], which inhibition at 1 µM (test compound dose 1000 nM) is on record?
Its inhibition at 1 µM is 43.2%.

With `C/C(=N\NC(=N)N)c1c(-c2sccc2C)n(C)c2ccccc12` [Example 146, 2-{[1-methyl-2-(2-(3-methyl-thienyl))-1H-indol-3-yl]-ethylidene}hydrazinecarboximidamide] as the compound, how does the inhibition at 0.1 µM (test compound dose 100 nM) read?
The inhibition at 0.1 µM was 46.1%.

How did the inhibition at 0.1 µM (test compound dose 100 nM) turn out when `CC(C)c1ccc2[nH]c3c(c2c1)C(=NNC(=N)N)CC(c1ccccc1)C3` (stereo not shown) [Example 167, 2-(6-isopropyl-2-phenyl-1,2,3,9-tetrahydro-4H-carbazol-4ylidene)hydrazinecarboximidamide] was run?
Its inhibition at 0.1 µM is 35.2%.

For `CC(=NNC(=N)N)c1c(-c2ccc(-c3ccccc3)cc2)[nH]c2ccc(Cl)cc12` [Example 141, 2-[(2-biphenyl-5-chloro-1H-indol-3-yl)-ethylidene]hydrazinecarboximidamide], which “% Inhibition” value (test compound dose 100 nM) is on record?
The value was 33.6%.

How did the inhibition at 1 µM (test compound dose 1000 nM) turn out when `N=C(N)NN=C(Cc1ccccc1)c1c(-c2ccccc2)[nH]c2ccccc12` [Example 59, 2-[2-phenyl-1-(2-phenyl-1H-indol-3-yl)-ethylidene]hydrazinecarboximidamide] was run?
The inhibition at 1 µM was 24.4%.

How did the inhibition at 1 µM (test compound dose 1000 nM) turn out when `Cc1nc(Cn2c(-c3ccc(Cl)cc3)c(C=CNNC3=NCCN3)c3ccccc32)cs1` [Example 102, {[2-(4-chlorophenyl)-1((2-methyl-thiazol-4-yl)methyl)-1H-indol-3-yl]methylene}-N′-(4,5-dihydro-1H-imidazol-2-yl)-N-methylhydrazine] was run?
Its inhibition at 1 µM is 62.7%.

What does the source list for `CC(=NNC(=N)N)c1c(-c2ccc(Cl)cc2)[nH]c2ccccc12` [Example 64, 2-{1-[2-(4-chloro-phenyl)-1H-indol-3-yl]-ethylidene}hydrazinecarboximidamide]?
Ki: 17 nM; inhibition at 1 µM (test compound dose 1000 nM): 98.5%

Which inhibition at 1 µM (test compound dose 1000 nM) does the source give for `CCn1c(-c2ccc(Cl)cc2)c(C=NNC(=N)N)c2ccccc21` [Example 103, 2-{[2-(4-chloro-phenyl)-1-ethyl-1H-indol-3-yl]-methylene}hydrazinecarboximidamide] here?
Its inhibition at 1 µM is 80.1%.

With `CN(N=C(C=Cc1ccccc1)c1c(-c2ccccc2)[nH]c2ccccc12)C1=NCCN1` [Example 71, N-(4,5-dihydro-1H-imidazol-2-yl)-N-methyl-N′-[3-phenyl-1-(2-phenyl-1H-indol-3-yl)-allylidene]hydrazine] as the compound, how does the inhibition at 1 µM (test compound dose 1000 nM) read?
The inhibition at 1 µM was 30%.

`N=C(N)NN=C(C=Cc1ccccc1Cl)c1c(-c2ccc(Cl)cc2)[nH]c2ccccc12` [Example 63, 2-{3-(2-chloro-phenyl)-1-[2-(4-chloro-phenyl)-1H-indol-3-yl]-allylidene}hydrazinecarboximidamide] was tested. Which inhibition at 1 µM (test compound dose 1000 nM) did it give?
The inhibition at 1 µM was 31.7%.

With `Cc1ccc2[nH]c3c(c2c1)C(=NNC(=N)N)CC(C)(C)C3` [Example 163, 2-(2,2,6-trimethyl-1,2,3,9-tetrahydro-4H-carbazol-4-ylidene)hydrazinecarboximidamide] as the compound, how does the inhibition at 0.1 µM (test compound dose 100 nM) read?
The inhibition at 0.1 µM was 38.5%.

Which inhibition at 1 µM (test compound dose 1000 nM) does the source give for `CC(=NNC(=N)N)c1c(-c2ccccc2)n(-c2ccccc2)c2ccccc12` [Example 87, 2-[1-(1,2-diphenyl-1H-indol-3-yl)-ethylidene]hydrazinecarboximidamide] here?
The inhibition at 1 µM was 31.3%.

`N=C(NN=Cc1c(-c2ccc(Cl)cc2)[nH]c2ccccc12)NC1CCCC1` [Example 115, 2-{[2-(4-chlorophenyl)-1H-indol-3-yl]methylidene}-N-cyclopentyl-1hydrazinecarboximidamide] was tested. Which inhibition at 1 µM (test compound dose 1000 nM) did it give?
Its inhibition at 1 µM is 49.5%.

Which “% Inhibition” value (test compound dose 1000 nM) does the source give for `Cc1ccc(Cn2c(-c3ccc(Cl)cc3)c(C=NN(C)C3=NCCN3)c3ccccc32)cc1` [Example 99, N-{[2-(4-chloro-phenyl)-1-(4-methyl-benzyl)-1H-indol-3-yl]-methylene}-N′-(4,5-dihydro-1H-imidazol-2-yl)-N-methylhydrazine] here?
Its value is 5.7%.

`N=C(N)NN=C(Cc1ccccc1)c1c(-c2ccc(Cl)cc2)[nH]c2ccccc12` [Example 60, 2-{1-[2-(4-chloro-phenyl)-1H-indol-3-yl]-2-phenyl-ethylidene}hydrazinecarboximidamide] was tested. Which inhibition at 1 µM (test compound dose 1000 nM) did it give?
The inhibition at 1 µM was 49.5%.

How did the Ki turn out when `N=C(N)NN=Cc1c(-c2ccc(F)cc2)[nH]c2ccccc12` [Example 52, 2-[2-(4-fluorophenyl)-1H-indol-3-ylmethylene]hydrazinecarboximidamide] was run?
Its Ki is 29 nM.

Which inhibition at 1 µM (test compound dose 1000 nM) does the source give for `CN(N=C1CCCc2[nH]c3ccc(F)cc3c21)C1=NCCN1` [Example 158, 6-fluoro-1,2,3,9-tetrahydro-4H-carbazol-4-one 4,5-dihydro-1H-imidazol-2-yl(methyl)hydrazone] here?
The inhibition at 1 µM was 68.7%.

For `CCCNC(=NC)NN=Cc1c(-c2ccc(Cl)cc2)[nH]c2ccccc12` [Example 120, 2-{[2-(4-chlorophenyl)-1H-indol-3-yl]methylidene}-N′-methyl-N-propyl-1hydrazinecarboximidamide], which inhibition at 1 µM (test compound dose 1000 nM) is on record?
Its inhibition at 1 µM is 49.9%.

For `CN=C(NN=Cc1c(-c2ccc(Cl)cc2)[nH]c2ccccc12)NC1CCCC1` [Example 116, 2-{[2-(4-chlorophenyl)-1H-indol-3-yl]methylidene}-N-cyclopentyl-N′-methyl-1hydrazinecarboximidamide], which inhibition at 1 µM (test compound dose 1000 nM) is on record?
The inhibition at 1 µM was 59.5%.

Which inhibition at 1 µM (test compound dose 1000 nM) does the source give for `CCCNC(=N)NN=Cc1c(-c2ccc(Cl)cc2)[nH]c2ccccc12` [Example 119, 2-{[2-(4-chlorophenyl)-1H-indol-3-yl]methylidene}-N-propyl-1hydrazinecarboximidamide] here?
Its inhibition at 1 µM is 86%.

How did the “% Inhibition” value (test compound dose 100 nM) turn out when “2-{[2-(3-thienyl)-1H-indol-3-yl]-ethylidene}hydrazinecarboximidamide [Example 139]” was run?
Its value is 60.1%.

With `CN(N=Cc1c(-c2ccccc2)n(C)c2ccccc12)C1=NCCN1` [Example 90, N-(4,5-dihydro-1H-imidazol-2-yl)-N′-[(1-methyl-2-phenyl-1H-indol-3-yl)-methylene]-N-methylhydrazine] as the compound, how does the Ki read?
Its Ki is 11 nM.

What about the inhibition at 1 µM (test compound dose 1000 nM) of the same compound?
The inhibition at 1 µM was 99.9%.

Which inhibition at 1 µM (test compound dose 1000 nM) does the source give for `CN=C(NC)NN=Cc1c(-c2ccc(Cl)cc2)[nH]c2ccccc12` [Example 122, 2-{[2-(4-chlorophenyl)-1H-indol-3-yl]methylidene}-N,N′-dimethyl-1hydrazinecarboximidamide] here?
Its inhibition at 1 µM is 38.4%.

`CN=C(NCCO)NN=Cc1c(-c2ccc(Cl)cc2)[nH]c2ccccc12` [Example 114, 2-{[2-(4-chlorophenyl)-1H-indol-3-yl]methylidene}-N-(2-hydroxyethyl)-N′-methyl-1hydrazinecarboximidamide] was tested. Which inhibition at 1 µM (test compound dose 1000 nM) did it give?
The inhibition at 1 µM was 31.6%.

Which inhibition at 1 µM (test compound dose 1000 nM) does the source give for `N=C(N)NN=C(Cc1ccc(Cl)cc1)c1c(-c2ccc(Cl)cc2)[nH]c2ccccc12` [Example 53, 2-{1-[2-(4-chloro-phenyl)-1H-indol-3-yl]-2-(4-chloro-phenyl)-ethylidene}hydrazinecarboximidamide] here?
Its inhibition at 1 µM is 33.7%.

How did the “% Inhibition” value (test compound dose 100 nM) turn out when “N-benzyl-2-(6-chloro-1,2,3,9-tetrahydro-4H-carbazol-4-ylidene)hydrazinecarboximidamide [Example 182]” was run?
Its value is 47.3%.

`Clc1ccc2[nH]c3c(c2c1)C(=NNC1=NCCN1)CCC3` [Example 153, 6-chloro-1,2,3,9-tetrahydro-4H-carbazol-4-one 4,5-dihydro-1H-imidazol-2-ylhydrazone] was tested. Which inhibition at 1 µM (test compound dose 1000 nM) did it give?
Its inhibition at 1 µM is 97%.

With `CC(C)c1ccc2[nH]c3c(c2c1)C(=NNC(=N)N)CC(C)(C)C3` [Example 166, 2-(6-isopropyl-2,2-dimethyl-1,2,3,9-tetrahydro-4H-carbazol-4-ylidene)hydrazinecarboximidamide] as the compound, how does the inhibition at 0.1 µM (test compound dose 100 nM) read?
Its inhibition at 0.1 µM is 27.3%.

With `C/C(=N\NC(=N)N)c1c[nH]c2ccc(NS(=O)(=O)c3ccccc3)cc12` [Example 7, (Z)-2-{1-[5-[(Phenylsulfonyl)amino]-1H-indol-3yl]ethylidene}hydrazinecarboximidamide Hydrochloride] as the compound, how does the Ki read?
The Ki was 1 nM.

For `C/C(=N\NC(=N)N)c1c(-c2sccc2C)[nH]c2ccccc12` [Example 133, 2-{[2-(2-(3-methyl-thienyl))-1H-indol-3-yl]-ethylidene}hydrazinecarboximidamide], which inhibition at 0.1 µM (test compound dose 100 nM) is on record?
Its inhibition at 0.1 µM is 63.2%.

For `CNC(=N)NN=Cc1c(-c2ccc(Cl)cc2)[nH]c2ccccc12` [Example 121, 2-{[2-(4-chlorophenyl)-1H-indol-3-yl]methylidene}-N-methyl-1hydrazinecarboximidamide], which inhibition at 1 µM (test compound dose 1000 nM) is on record?
Its inhibition at 1 µM is 90.5%.

For `C=CCCn1c(-c2ccc(Cl)cc2)c(C=NN(C)C2=NCCN2)c2ccccc21` [Example 112, N-{[1-(3-butenyl)-2-(4-chloro-phenyl)-1H-indol-3-yl]-methylene}-N′-(4,5-dihydro-1H-imidazol-2-yl)-N-methylhydrazine], which “% Inhibition” value (test compound dose 1000 nM) is on record?
Its value is 85.1%.

For `CN(N=Cc1c(-c2ccccc2)[nH]c2ccccc12)C1=NCCN1` [Example 50, N-(4,5-dihydro-1H-imidazol-2-yl)-N′-(2-phenyl-1H-indol-3-ylmethylene)-N-methylhydrazine], which inhibition at 1 µM (test compound dose 1000 nM) is on record?
Its inhibition at 1 µM is 96.2%.

Which “% Inhibition” value (test compound dose 1000 nM) does the source give for `CC(=NNC(=N)N)c1c(-c2ccccc2)n(CCc2ccccc2)c2ccccc12` [Example 78, 2-{[1-(2-Phenethyl)-2-phenyl-1H-indol-3-yl]ethylidene}hydrazine-carboximidamide] here?
The value was 84.2%.
